Data taken from US20250127702A1, “SUNSCREEN COMPOSITION WITH CRYSTALLINE ORGANIC SUNSCREEN FILTERS” (Edgewell Personal Care Brands, LLC, priority 2021, published 2025).

Test: Amount of solvent needed to solubilize crystalline sunscreen filters
Format: physicochemical
Conditions: solvent: butyloctyl salicylate, capric/caprylic triglyceride
From the text: This is unexpected since it theoretically takes at least 37 g of the solvent combination to solvate 3 g of bis-ethylhexyloxyphenol methoxyphenyl triazine (a filter that is harder to solubilize than even avobenzone). Similarly, the theoretical amount of octocrylene, homosalate, octisalate, octinoxate, ethylhexyl benzoate and C12-C15 alkyl benzoate to solvate 3 g of bis-ethylhexyloxyphenol methoxyphenyl triazine is 21 g. […] Additional benefits from relatively less solvent content, such as migration benefits, are discussed below.
This is unexpected since it theoretically takes at least 37 g of the solvent combination to solvate 3 g of bis-ethylhexyloxyphenol methoxyphenyl triazine (a filter that is harder to solubilize than even avobenzone) and 42.8 g of the solvent combination to solvate 15.5 g of the crystalline filter combination.

## CCCCC(CC)COc1ccc(-c2nc(-c3ccc(OC)cc3)nc(-c3ccc(OCC(CC)CCCC)cc3O)n2)c(O)c1 (centres unmarked) [bis-ethylhexyloxyphenol methoxyphenyl triazine]
Diisobutyl adipate, diethylhexyl maleate, butyl maleate, butyl oleate, isopropyl myristate
  theoretical amount of the solvent combination to solvate 3 g: at least 37 g
Dibutyl adipate and/or diisopropyl adipate
  theoretical amount of the solvent combination to solvate 3 g: at least 37 g
